As usually defined, the IC50 is the concentration needed to halve the response being measured. High values mean weaker potency in that assay, low ones greater potency in that assay.

Some results are limits rather than exact numbers.

From patent US20100216767A1, “QUINAZOLINES FOR PDK1 INHIBITION” (priority 2006, published 2010) come the findings set out here.

This assay deals with T1, PDK1 kinase (Homo sapiens, UniProt O15530).
T1 sequence (O15530 1-556): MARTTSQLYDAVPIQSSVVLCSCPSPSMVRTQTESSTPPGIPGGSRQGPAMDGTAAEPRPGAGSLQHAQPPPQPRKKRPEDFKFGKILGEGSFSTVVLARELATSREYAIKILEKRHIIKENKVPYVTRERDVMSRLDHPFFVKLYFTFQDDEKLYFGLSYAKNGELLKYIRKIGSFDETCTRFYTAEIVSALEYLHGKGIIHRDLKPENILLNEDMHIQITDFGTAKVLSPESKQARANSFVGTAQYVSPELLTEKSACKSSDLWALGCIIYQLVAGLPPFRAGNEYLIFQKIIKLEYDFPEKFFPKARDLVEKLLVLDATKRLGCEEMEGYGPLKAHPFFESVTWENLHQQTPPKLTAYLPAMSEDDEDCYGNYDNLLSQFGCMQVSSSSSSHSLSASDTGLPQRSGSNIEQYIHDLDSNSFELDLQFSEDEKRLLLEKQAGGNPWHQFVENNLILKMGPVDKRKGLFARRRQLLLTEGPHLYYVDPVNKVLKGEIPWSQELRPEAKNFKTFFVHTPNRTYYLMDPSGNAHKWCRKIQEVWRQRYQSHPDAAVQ
As to the kind of experiment: PDK1 Kinase Alpha Screen Assay. Particulars: Table 1; 10 μM ATP, 50 nM PDK1-4 peptide. It is filed as biochemical. A digest of the protocol:
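PDK1 phosphorylation of 50 nM biotinylated PDK1-4 peptide with 10 μM ATP in 50 mM Tris pH 7.5, 10 mM MgCl2, 0.1% BSA, 0.01% Tween-20, 2 mM DTT, 2.5% DMSO, 3-18 h. Stopped with EDTA; phosphopeptide detected by AlphaScreen using phospho-(Ser/Thr) PKA substrate antibody on protein A acceptor and streptavidin donor beads, overnight at room temperature.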

For the molecule `C#Cc1ccc2nc(Nc3cc(NC(C)=O)cc(NC(C)=O)c3)ncc2c1` [Example 105, N,N′-(5-(6-ethynyl-quinazolin-2-ylamino)-1,3-phenylene)diacetamide], the IC50 was under 5 µM.
The molecule `C#Cc1ccc2nc(Nc3ccc(C(=O)NC(C)C)cc3)ncc2c1Cl` [Example 106, 4-(5-chloro-6-ethynyl-quinazolin-2-ylamino)-N-isopropylbenzamide] registered an IC50 of under 5 µM.
For `C#Cc1ccc2nc(Nc3ccc(C(=O)NC4CC4)cc3)ncc2c1Cl` [Example 107, 4-(5-chloro-6-ethynyl-quinazolin-2-ylamino)-N-cyclopropylbenzamide] the value was under 5 µM; for `COc1ccc2nc(Nc3cc(CN(C)C)cc(NC(C)=O)c3)ncc2c1` [Example 109, N-(3-((dimethylamino)-methyl)-5-(6-methoxy-quinazolin-2-ylamino)-phenyl)acetamide], under 5 µM; for `COc1cncc(-c2cc(OC)c3nc(Nc4cc(CN(C)C)cc(NC(C)=O)c4)ncc3c2)n1` [Example 110, N-(3-((dimethylamino)-methyl)-5-(8-methoxy-6-(6-methoxypyrazin-2-yl)quinazolin-2-ylamino)phenyl)acetamide], under 5 µM.
Under `COc1nc(N)ncc1-c1cc(OC)c2nc(Nc3cc(CN(C)C)cc(NC(C)=O)c3)ncc2c1` [Example 111, N-(3-(6-(2-amino-4-methoxypyrimidin-5-yl)-8-methoxyquinazolin-2-ylamino)-5-((dimethyl-amino)methyl)-phenyl)-acetamide] stands 5 to 10 µM; under `COc1cc2nc(Nc3cccc(-n4cnnn4)c3)ncc2cc1-c1nccs1` [Example 112, N-(3-(1H-tetrazol-1-yl)phenyl)-7-methoxy-6-(thiazol-2-yl)quinazolin-2-amine], under 5 µM; under `C#Cc1cc(OC)c2nc(Nc3ccc(C(=O)N4CCOCC4)cc3)ncc2c1Cl` [Example 113, (4-(5-chloro-6-ethynyl-8-methoxyquinazolin-2-ylamino)phenyl)-(morpholino)methanone], under 5 µM.
As for `C#Cc1cc(OC)c2nc(Nc3ccc(C(=O)NC(C)C)cc3)ncc2c1Cl` [Example 114, 4-(5-chloro-6-ethynyl-8-methoxyquinazolin-2-ylamino)-N-isopropyl-benzamide], the IC50 was under 5 µM.
For `COc1cc(-c2nccs2)c(Cl)c2cnc(Nc3ccc(N4CCOCC4)cc3)nc12` [Example 115, 5-chloro-8-methoxy-N-(4-morpholinophenyl)-6-(thiazol-2-yl)quinazolin-2-amine] the value was under 5 µM; for `COc1cc(Br)c(Cl)c2cnc(Nc3ccc(N4CCOCC4)cc3)nc12` [Example 116, 6-bromo-5-chloro-8-methoxy-N-(4-morpholinophenyl)-quinazolin-2-amine], under 5 µM; for `COc1cc(-c2nccs2)c(Cl)c2cnc(Nc3ccc(C(=O)N4CCOCC4)cc3)nc12` [Example 117, (4-(5-chloro-8-methoxy-6-(thiazol-2-yl)quinazolin-2-ylamino)phenyl)-(morpholino)-methanone], under 5 µM.
Under `COc1cc(Br)c(Cl)c2cnc(Nc3ccc(C(=O)N4CCOCC4)cc3)nc12` [Example 118, (4-(6-bromo-5-chloro-8-methoxyquinazolin-2-ylamino)phenyl)-(morpholino)-methanone] stands under 5 µM; under `COc1cc(-c2nccs2)c(Cl)c2cnc(Nc3ccc(C(=O)NC(C)C)cc3)nc12` [Example 119, 4-(5-chloro-8-methoxy-6-(thiazol-2-yl)quinazolin-2-ylamino)-N-isopropyl-benzamide], under 5 µM; under `C#Cc1cc2cnc(Nc3ccc(C(=O)N4CCOCC4)c(Cl)c3)nc2cc1OC` [Example 120, (2-chloro-4-(6-ethynyl-7-methoxyquinazolin-2-ylamino)phenyl)-(morpholino)methanone], under 5 µM.
For `C#Cc1ccc2nc(Nc3cccc(N4CCOCC4)c3)ncc2c1Cl` [Example 121, 5-chloro-6-ethynyl-N-(3-morpholinophenyl)-quinazolin-2-amine] the value was under 5 µM.
